How the values were obtained:
[1] = molecular target: T1, recombinant mouse TLR2-Fc fusion protein (Mus musculus, UniProt Q9QUN7); assay: Competitive binding of CEP-PE vs CEP-HSA to recombinant mouse TLR2-Fc protein (ELISA); conditions: vesicles 0 to 125 μM; coated CEP-HSA; mTLR2-Fc 1 μg/ml
T1 construct: purchased R&D systems (Minneapolis, Minn.)
Procedure: Small unilamellar vesicles of CEP-DPPE (125 μM) in phosphate buffered saline (PBS) were prepared by extruding (20 times) the hydrated phospholipids through a 0.1 μm polycarbonate filter using an Avanti Mini-Extruder (Avanti Polar Lipids, Inc., Alabaster, Ala.). The resulting solution was diluted to various concentrations by addition of PBS. To a 96-well ELISA plate, 100 μl of 5 μM CEP in CEP-HSA protein in PBS solution was added into each well and the plate was incubated at 37° C. for 1 h. PBS (100 μl) was used as control. Then the wells were washed with PBS and the non-binding sites on wells were blocked with 350 μL of 4% bovine serum albumin (BSA) in PBS buffer for 1 h at 37° C. blocking was completed, a mixture of recombine-ant mouse TLR2-Fc protein at a fixed concentration (1 μg/ml, in 1% BSA-PBS) with an equal volume of CEP-PE vesicles at concentrations from 0 to 125 μM was added to each well, and the plate was allowed to incubate for 1 h at 37° C. DPPE vesicle solutions at 0, 50, 75 and 120 μM concentration, prepared by sonication, were used as parallel samples. After washing the plate with PBS containing 0.1% Tween-20 (PBST) buffer, 100 μL of 1:2,000 diluted goat anti-human Fc antibody in PBST buffer was added to each well. […] After an additional 30 min incubation, the absorbance for each well was read at 405 nm with a microplate reader (Bio-Rad, Hercules, Calif.).

HUVECs = assay: HUVEC tube formation assay; type: cell-based, human
Procedure: For comparing the ability of various CEP-derivatives to promote tube formation (FIG. 2A) HUVECs were seeded on Matrigel-coated 48 well plates (BD Bioscience). The DMEM-F12 medium (Media lab, Cleveland Clinic, Cleveland, Ohio) was supplemented with various CEP-derivatives as indicated and incubated with cultured HUVECs at 37° C. for 8 h. Tube formation by HUVECs was observed using a phase contrast inverted microscope. Two independent assays were performed by two operators, one used PBS as control and the other used DPPE vesicles as control. The data were quantified either by measuring the length of tubes or by the number of branches. For testing the effects of oxPAPC, a TLR2 inhibitor, (FIG. 2C) or TLR2 knockdown (FIG. 2D) on the ability of CEP-PE to promote tube formation, growth factor-reduced (GFR) basement membrane extract (Cultrex BME, Trevigen, Gaithersburg, Md.; 175 μl/well) was added to the wells of an ice-cold 48-well plate and then incubated at 37° C. for 1 h to allow the gel to solidify. Overnight-starved, trypsin detached and extensively washed HUVECs (2.5×10^4 cells/well; Promocell, GmbH, Heidelberg, Germany) in a basal Growth Medium 2 (GM2; Promocell, GmbH) were seeded onto the BME coated wells. […] They were further thoroughly washed three times with GM2 basal medium, counted and seeded onto BME coated wells. […]

[2] = tested on: PLD from Streptomyces chromofuscus; assay: PLD-catalyzed hydrolysis of pyrrole-modified PEs, monitored by LC-MS; type: biochemical
Procedure: The isolated lipids were hydrolyzed with PLD (Streptomyces chromofuscus) by a modification of the method described previously for hydrolysis of isolevuglandin modified PEs. Lipids were re-suspended in 50 μL of methanol. Then 450 μL of HBSS buffer (Thermo Scientific, Waltham, Mass.) supplemented with 5 mM CaCl2 and 0.1 mM EDTA was added. The mixture was incubated at 37° C. for 30 min, and then was sonicated for 10 min. The cloudy lipid mixture was passed through a 0.1 μm polycarbonate filter (20 times) for extrusion using an Avanti Mini- Extruder Set (Avanti Polar Lipids, Inc., Alabaster, Ala.) to generate a homogeneous unilammelar lipid vesicle solution. Then 280 units of PLD (Streptomyces chromofuscus) were added to each sample. The mixture was incubated under argon with gentle shaking at 37° C. overnight. The next day the samples were evaporated to dryness under a stream of nitrogen for 2 h. […]
To verify CEP-PEs are substrates of PLD, CEP-DPPE and d4-CEP-PE standards were treated with PLD from Streptomyces chromofuscus. Then the generation of CEP-ETN and d4-CEPETN was monitored by LC-MS/MS, respectively. […]
Total phospholipids isolated from biological samples by a modified Bligh & Dyer method, were prepared for phospholipolysis by conversion into small unilamellar vesicles (SUVs) by extrusion. […] The resulting product mixture was then analyzed by injection into the LC-MS/MS. […]

T1 sequence (Q9QUN7 with tags, fused parts or gaps limits assumed): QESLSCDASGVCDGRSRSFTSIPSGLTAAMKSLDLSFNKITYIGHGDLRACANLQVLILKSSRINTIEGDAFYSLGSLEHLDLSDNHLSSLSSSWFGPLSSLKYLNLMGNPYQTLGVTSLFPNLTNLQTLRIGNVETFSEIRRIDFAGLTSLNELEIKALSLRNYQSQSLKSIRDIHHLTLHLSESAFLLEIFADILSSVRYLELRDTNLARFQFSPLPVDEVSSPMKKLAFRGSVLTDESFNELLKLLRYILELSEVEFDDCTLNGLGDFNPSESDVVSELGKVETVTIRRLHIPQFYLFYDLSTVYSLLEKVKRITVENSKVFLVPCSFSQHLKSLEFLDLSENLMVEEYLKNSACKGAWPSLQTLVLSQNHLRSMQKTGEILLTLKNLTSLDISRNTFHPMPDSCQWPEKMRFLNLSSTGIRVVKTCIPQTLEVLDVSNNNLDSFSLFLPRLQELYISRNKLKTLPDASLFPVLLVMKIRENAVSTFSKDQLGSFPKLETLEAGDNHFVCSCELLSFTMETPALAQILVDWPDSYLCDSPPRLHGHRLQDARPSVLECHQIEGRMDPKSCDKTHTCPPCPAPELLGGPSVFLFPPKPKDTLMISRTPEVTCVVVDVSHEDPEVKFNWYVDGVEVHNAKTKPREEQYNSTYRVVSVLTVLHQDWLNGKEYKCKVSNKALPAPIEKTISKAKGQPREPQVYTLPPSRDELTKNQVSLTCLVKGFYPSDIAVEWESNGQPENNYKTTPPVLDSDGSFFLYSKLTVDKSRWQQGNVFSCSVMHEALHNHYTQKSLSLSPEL

Row | Compound | competition with CEP-HSA in binding with mTLR2-Fc protein [1] | ability to induce tube formation by HUVECs after knockdown of TLR2 by TLR2 siRNA (HUVECs; HUVECs with transient TLR2 knockdown, 1-500 nM CEP-DPPE, 12 h) | tube formation by HUVECs (HUVECs; cultured HUVECs on Matrigel, 8 h, 0.5 μM CEP-DPPE, PBS or DPPE as negative control) | release of CEP-ETN by PLD ([2]; control experiment, incubation for 1 h (data not shown)) | hydrolysis by PLD (Streptomyces chromofuscus) to the modified ethanolamine ([2]; standards treated with PLD, LC-MS/MS or LC-MS)
1 | CCCCCCCCCCCCCCCC(=O)OC[C@H](COP(=O)(O)OCCN)OC(=O)CCCCCCCCCCCCCCC [DPPE, 1,2-Dipalmitoyl-sn-glycero-3-phosphoethanolamine, reference compound] | does not inhibit | – | – | – | –
2 | CEP derivative of 1,2-dipalmitoyl-sn-glycero-3-phosphoethanolamine [CEP-DPPE] | compete with CEP-HSA | abolished | induces tube formation | quantitative release | readily hydrolyzed
